Experiments:
Male C57BL/6 mice = test: Acute-toxicity assay in mice; assay type: in vivo; conditions: 200 or 400 mg/kg by gavage
Method: Male C57BL/6 mice weighing 18–20 g were randomly divided into three groups (n = 5 per group). Mice were gavage-administered 200 μL of the drug (at 200 or 400 mg/kg in physiological saline). Mice in the control group received 200 μL of physiological saline. After drug administration, body-weight changes were recorded for 7 days.

[1] = Pharmacokinetic parameters in rats; assay type: in vivo; conditions: SD rats
Method: Male SD rats weighing 180–220 g (Southern China Medical University) were utilized for the studies. The protocol was approved by the Animal Care and Use Committee, GIBH. Animals were given standard animal chow and water ad libitum in a climate-controlled room (23 ± 1 °C, 30–70% relative humidity, a minimum of 10 exchanges of room air per hour, and a 12 h light–dark cycle) for 1 week prior to experiments. The compound was dissolved in a solution containing 2% DMSO, 4% ethanol, 4% castor oil, and 90% ddH2O. The pharmacokinetic properties of the SD rats (male) were determined following iv and oral administration. Animals were randomly distributed into two experimental groups (n = 3). […] After single administration, whole blood samples (100–200 μL) were obtained from the orbital venous plexus at the following time points after dosing: 5, 10, and 30 min and 1, 2, 3, 4, 6, 8, 11, and 24 h (po) or 2, 10, and 30 min and 1, 2, 3, 4, 6, 8, 11, and 24 h (iv). Whole blood samples were collected in heparinized tubes. The plasma fraction was immediately separated by centrifugation (8000 rpm, 6 min, 4 °C) and stored at −20 °C until LC-MS analysis. The rats were humanely euthanasia by carbon dioxide 24 h after the experiment without pain. The pharmacokinetics parameters were calculated by analyzing the compound concentrations in plasma samples using the pharmacokinetic software DAS.2.0.

[2] = male, rat, plasma, iv (4 mg/kg)
[3] = male, rat, plasma, oral (20 mg/kg)

With `CC(C)c1ccc(C(=O)Nc2cc(CN3CCN(C)CC3)cc(C(F)(F)F)c2)cc1C#Cc1cnc2cnccn12` [Compound 5n, 3-(Imidazo[1,2-a]pyrazin-3-ylethynyl)-4-isopropyl-N-(3-((4-methylpiperazin-1-yl)methyl)-5-(trifluoromethyl)phenyl)benzamide] the tolerability (Male C57BL/6 mice) was “well-tolerated”, the “animal deaths and body-weight changes” value (Male C57BL/6 mice; 7 days) was “no animal deaths or obvious body-weight changes” and the BA ([1]; oral (20 mg/kg) vs iv (4 mg/kg)) was 8.06%. It also gave an AUC(0-inf) [1, 2] of 798 ± 121 ng·h/mL, a Cmax [1, 2] of 1180 ± 150 ng/mL and a half-life [1, 2] of 2.12 ± 0.25 h. The clearance ([1]; male, rat, plasma, iv (4 mg/kg), read-out: CLz (converted)) was 85 mL/min/kg, the AUC(0-inf) [1, 3] was 322 ± 106 ng·h/mL and the Cmax [1, 3] was 48.7 ± 18.2 ng/mL. For the same compound, the Tmax [1, 3] was 1.5 ± 1.3 h and the half-life [1, 3] was 2.08 ± 0.66 h.

Reference: article PMC6287892, “Design, Synthesis, and Biological Evaluation of 3-(Imidazo[1,2-a]pyrazin-3-ylethynyl)-4-isopropyl-N-(3-((4-methylpiperazin-1-yl)methyl)-5-(trifluoromethyl)phenyl)benzamide as a Dual Inhibitor of Discoidin Domain Receptors 1 and 2” (Journal of Medicinal Chemistry, 2018)
